# Reference: article PMC9974481, “Structure of SpoT reveals evolutionary tuning of catalysis via conformational constraint” (Nature Chemical Biology, 2022)
# What was measured:
# [1] = target: T1, SpoTAb (full-length A. baumannii SpoT) (Acinetobacter baumannii, UniProt A0A0D5YCY1); assay: 3H-ppGpp hydrolysis, TLC and scintillation counting; type: biochemical; details: 1 mM MnCl2, 5 mM Mg2+, HEPES:Polymix pH 7.5, 37 °C, 10-600 μM substrate; labelled compound
# T1 construct: gene ABUW_0309; full-length, domains HD, pseudo-SYNTH, Core, TGS, HEL, ZFD, RRM; pET28b His-TEV tag cleaved, E. coli BL21(DE3); monomer, theoretical 80 kDa; locus tag belongs to AB5075, expression gene amplified from AB19606; PDB entries not assigned in text (one is the metal-free NTD)
# [2] = target: T1, SpoTAb (full-length A. baumannii SpoT); assay: X-ray crystallography, […] Å; type: binding; details: crystal soaked with 20 mM ppGpp at 4 °C; Mn2+ in hydrolase active site; PDB entry is 7QPR or 7QPS, not assigned in text
smiles,measurement,setting,value
Nc1nc2c(ncn2[C@@H]2O[C@H](COP(=O)(O)OP(=O)(O)O)[C@@H](OP(=O)(O)OP(=O)(O)O)[C@H]2O)c(=O)[nH]1 [ppGpp],KM,[1],SpoTAb Michaelis constant (KM) and maximum reaction velocity (Vmax) of ^3H-ppGpp hydrolysis were determined
same,"X-ray crystallography, 2.5 Å",[2],X-ray structure of full-length catalytically active SpoTAb bound to ppGpp
